From US7101882B2, “Morpholin-acetamide derivatives for the treatment of inflammatory diseases” (Glaxo Group Limited, priority 2000, dated 2006)

Target: eosinophils
Test: Eosinophil chemotaxis assay (assay (b))
Assay type: cell-based, human
Description: (b) Eosinophil Chemotaxis Assay.
Compounds were evaluated for their inhibitory effect on eosinophil chemotaxis. Eosinophils were purified from human peripheral blood by standard CD16 cell depletion using a Miltenyi cell separation column and a magnetic Super Macs magnet as previously described (Motegi & Kita, 1998; J. Immunology. 161:4340-6). Cells were re-suspended in RPMI 1640/10% FCS solution and incubated with calcein-AM (Molecular Probes) at 37° C. for 30 mins. Following incubation, the eosinophils were centrifuged at 400 g for 5 min and re-suspended in RPMI/FCS at 2.2 million/ml. Cells were then incubated in the presence of increasing concentration of compounds (1 pM to 30 μM) at 37° C. for 30 mins. For control responses cells were incubated with RPMI/FCS only. The agonist eotaxin (either a concentration response curve or for the functional inhibition curves an EC80 concentration) was added to the lower chamber of a 96 well chemotaxis plate (5 μm filter: Receptor Technologies). […] Cells remaining on top of the chemotaxis filter were removed and the number of eosinophils which had migrated were quantified by reading the plate on a fluorescent plate reader. Inhibition curves for the effect of compounds on eosinophil chemotaxis were analysed by fitting the data with a four parameter logistic equation. […]

## NS(=O)(=O)c1cccc(CC(=O)NC[C@H]2CN(Cc3ccc(Cl)c(Cl)c3)CCO2)c1 [Example 162, 2-[3-(Aminosulfonyl)phenyl]-N-{[(2S)-4-(3,4-dichlorobenzyl)morpholin-2-yl]methyl}acetamide]
  CCR-3 Eosinophil Chemotaxis Assay (fpKi): 8.2
